Reference: the NIST ThermoML archive (doi:10.1021/je8000975)
Where “and” joins values, the source holds several entries; their conditions need not be identical. Identical values can stand only once. Numbers after ± are expanded uncertainties.

Columns and labels:
[1] = Liquid; for speed of sound: Sing-around technique in a fixed-path interferometer
[2] = xn = mol fraction of the nth substance listed; settings: 101 kPa, Liquid

CCOCCO [2-ethoxyethan-1-ol]
[1]
Settings | mass density [kg/m3] | speed of sound [m/s]
293.15 K | 929.545 ± 0.32 | 1319.9 ± 0.84
298.15 K | 925.027 ± 0.33 | 1301.7 ± 0.83
303.15 K | 920.457 ± 0.33 | 1284.2 ± 0.82

CCOCCO [2-ethoxyethan-1-ol] + COCCO
[2]
Settings | mass density [kg/m3]
293.15 K, x2 = 0.1511 | 933.958 ± 0.32
293.15 K, x2 = 0.2029 | 935.531 ± 0.32
293.15 K, x2 = 0.3043 | 938.709 ± 0.31
293.15 K, x2 = 0.3503 | 940.193 ± 0.31
293.15 K, x2 = 0.5024 | 945.313 ± 0.31
293.15 K, x2 = 0.5514 | 947.031 ± 0.3
293.15 K, x2 = 0.6992 | 952.448 ± 0.3
293.15 K, x2 = 0.7482 | 954.326 ± 0.3
293.15 K, x2 = 0.798 | 956.272 ± 0.29
293.15 K, x2 = 0.7992 | 956.321 ± 0.29
293.15 K, x2 = 0.8504 | 958.373 ± 0.29
293.15 K, x2 = 0.8997 | 960.393 ± 0.29
293.15 K, x2 = 0.9488 | 962.456 ± 0.29
298.15 K, x2 = 0.0536 | 926.563 ± 0.33
298.15 K, x2 = 0.1039 | 928.032 ± 0.32
298.15 K, x2 = 0.151 | 929.431 ± 0.32
298.15 K, x2 = 0.1517 | 929.455 ± 0.32
298.15 K, x2 = 0.3523 | 935.724 ± 0.32
298.15 K, x2 = 0.3757 | 936.488 ± 0.32
298.15 K, x2 = 0.4166 | 937.846 ± 0.31
298.15 K, x2 = 0.4509 | 939.002 ± 0.31
298.15 K, x2 = 0.5507 | 942.46 ± 0.31
298.15 K, x2 = 0.5981 | 944.155 ± 0.31
298.15 K, x2 = 0.7494 | 949.818 ± 0.3
298.15 K, x2 = 0.7987 | 951.747 ± 0.3
298.15 K, x2 = 0.8423 | 953.488 ± 0.3
298.15 K, x2 = 0.8475 | 953.698 ± 0.3
298.15 K, x2 = 0.9002 | 955.855 ± 0.3
298.15 K, x2 = 0.9483 | 957.869 ± 0.29
303.15 K, x2 = 0.1537 | 924.945 ± 0.33
303.15 K, x2 = 0.1543 | 924.961 ± 0.33
303.15 K, x2 = 0.2017 | 926.398 ± 0.33
303.15 K, x2 = 0.2495 | 927.868 ± 0.32
303.15 K, x2 = 0.3013 | 929.498 ± 0.32
303.15 K, x2 = 0.402 | 932.768 ± 0.32
303.15 K, x2 = 0.4505 | 934.39 ± 0.32
303.15 K, x2 = 0.4985 | 936.037 ± 0.32
303.15 K, x2 = 0.5505 | 937.856 ± 0.31
303.15 K, x2 = 0.5979 | 939.553 ± 0.31
303.15 K, x2 = 0.6504 | 941.473 ± 0.31
303.15 K, x2 = 0.6979 | 943.248 ± 0.31
303.15 K, x2 = 0.7488 | 945.193 ± 0.31
303.15 K, x2 = 0.7998 | 947.188 ± 0.3
303.15 K, x2 = 0.9001 | 951.244 ± 0.3

COCCO [2-methoxyethan-1-ol]
[1]
Settings | mass density [kg/m3] | speed of sound [m/s]
293.15 K | 964.656 ± 0.29 | 1359.2 ± 0.85
298.15 K | 960.088 ± 0.29 | 1341.6 ± 0.84
303.15 K | 955.471 ± 0.3 | 1324.3 ± 0.84

CCCOCCO [2-propoxyethanol]
[1]
Settings | mass density [kg/m3] | speed of sound [m/s]
293.15 K | 911.515 ± 0.56 | 1316.6 ± 1.2
298.15 K | 907.151 ± 0.57 | 1298.6 ± 1.2
303.15 K | 902.736 ± 0.58 | 1281.1 ± 1.2

CCCOCCO [2-propoxyethanol] + CCCCOCCCC
[2]
Settings | mass density
293.15 K, x1 = 0.0625 | 774.485 ± 0.51 kg/m3
293.15 K, x1 = 0.1231 | 780.612 ± 0.51 kg/m3
293.15 K, x1 = 0.1827 | 786.927 ± 0.5 kg/m3
293.15 K, x1 = 0.2394 | 793.199 ± 0.5 kg/m3
293.15 K, x1 = 0.2492 | 794.319 ± 0.49 kg/m3
293.15 K, x1 = 0.2944 | 799.55 ± 0.49 kg/m3
293.15 K, x1 = 0.2949 | 799.613 ± 0.49 kg/m3
293.15 K, x1 = 0.3486 | 806.069 ± 0.49 kg/m3
293.15 K, x1 = 0.4023 | 812.805 ± 0.48 kg/m3
293.15 K, x1 = 0.4544 | 819.603 ± 0.48 kg/m3
293.15 K, x1 = 0.4567 | 819.921 ± 0.48 kg/m3
293.15 K, x1 = 0.5556 | 833.65 ± 0.47 kg/m3
293.15 K, x1 = 0.599 | 840.02 ± 0.47 kg/m3
293.15 K, x1 = 0.6019 | 840.448 ± 0.47 kg/m3
293.15 K, x1 = 0.6498 | 847.778 ± 0.47 kg/m3
293.15 K, x1 = 0.6536 | 848.363 ± 0.47 kg/m3
293.15 K, x1 = 0.7431 | 862.909 ± 0.46 kg/m3
293.15 K, x1 = 0.8304 | 878.188 ± 0.45 kg/m3
293.15 K, x1 = 0.8329 | 878.643 ± 0.45 kg/m3
293.15 K, x1 = 0.875 | 886.46 ± 0.45 kg/m3
293.15 K, x1 = 0.9173 | 894.637 ± 0.45 kg/m3
293.15 K, x1 = 0.9567 | 902.506 ± 0.44 kg/m3
293.15 K, x1 = 0.9568 | 902.528 ± 0.44 kg/m3
298.15 K, x1 = 0.0551 | 769.407 ± 0.52 kg/m3
298.15 K, x1 = 0.0626 | 770.132 ± 0.52 kg/m3
298.15 K, x1 = 0.1039 | 774.248 ± 0.51 kg/m3
298.15 K, x1 = 0.1246 | 776.381 ± 0.51 kg/m3
298.15 K, x1 = 0.1556 | 779.622 ± 0.51 kg/m3
298.15 K, x1 = 0.2367 | 788.484 ± 0.5 kg/m3
298.15 K, x1 = 0.2393 | 788.779 ± 0.5 kg/m3
298.15 K, x1 = 0.2922 | 794.872 ± 0.5 kg/m3
298.15 K, x1 = 0.3545 | 802.367 ± 0.49 kg/m3
298.15 K, x1 = 0.4014 | 808.252 ± 0.49 kg/m3
298.15 K, x1 = 0.4031 | 808.491 ± 0.49 kg/m3
298.15 K, x1 = 0.455 | 815.247 ± 0.48 kg/m3
298.15 K, x1 = 0.5006 | 821.438 ± 0.48 kg/m3
298.15 K, x1 = 0.5043 | 821.944 ± 0.48 kg/m3
298.15 K, x1 = 0.5521 | 828.692 ± 0.48 kg/m3
298.15 K, x1 = 0.6483 | 843.112 ± 0.47 kg/m3
298.15 K, x1 = 0.6976 | 850.944 ± 0.47 kg/m3
298.15 K, x1 = 0.6984 | 851.074 ± 0.47 kg/m3
298.15 K, x1 = 0.6993 | 851.218 ± 0.47 kg/m3
298.15 K, x1 = 0.7502 | 859.679 ± 0.46 kg/m3
298.15 K, x1 = 0.7902 | 866.584 ± 0.46 kg/m3
298.15 K, x1 = 0.8325 | 874.153 ± 0.46 kg/m3 and 874.166 ± 0.46 kg/m3
298.15 K, x1 = 0.9152 | 889.815 ± 0.45 kg/m3
298.15 K, x1 = 0.9163 | 890.027 ± 0.45 kg/m3
298.15 K, x1 = 0.9571 | 898.214 ± 0.45 kg/m3
298.15 K, x1 = 0.9581 | 898.407 ± 0.45 kg/m3
303.15 K, x1 = 0.0645 | 765.959 ± 0.52 kg/m3
303.15 K, x1 = 0.1249 | 772.015 ± 0.52 kg/m3
303.15 K, x1 = 0.1826 | 778.083 ± 0.51 kg/m3
303.15 K, x1 = 0.2383 | 784.22 ± 0.51 kg/m3 and 784.216 ± 0.51 kg/m3
303.15 K, x1 = 0.3481 | 797.121 ± 0.5 kg/m3
303.15 K, x1 = 0.4032 | 804.021 ± 0.49 kg/m3
303.15 K, x1 = 0.4542 | 810.67 ± 0.49 kg/m3
303.15 K, x1 = 0.4567 | 810.994 ± 0.49 kg/m3
303.15 K, x1 = 0.5058 | 817.67 ± 0.49 kg/m3
303.15 K, x1 = 0.5547 | 824.595 ± 0.48 kg/m3
303.15 K, x1 = 0.5548 | 824.612 ± 0.48 kg/m3
303.15 K, x1 = 0.5997 | 831.213 ± 0.48 kg/m3
303.15 K, x1 = 0.6542 | 839.567 ± 0.47 kg/m3
303.15 K, x1 = 0.6988 | 846.673 ± 0.47 kg/m3
303.15 K, x1 = 0.7434 | 854.06 ± 0.47 kg/m3
303.15 K, x1 = 0.7899 | 862.072 ± 0.46 kg/m3
303.15 K, x1 = 0.8319 | 869.613 ± 0.46 kg/m3
303.15 K, x1 = 0.8764 | 877.879 ± 0.46 kg/m3
303.15 K, x1 = 0.9168 | 885.687 ± 0.46 kg/m3 and 885.692 ± 0.46 kg/m3
303.15 K, x1 = 0.9553 | 893.42 ± 0.45 kg/m3
303.15 K, x1 = 0.9575 | 893.858 ± 0.45 kg/m3
